Assay [1] addresses T1, Endothelin-1 receptor (Homo sapiens, UniProt P25101).
T1 sequence (P25101 whole entry): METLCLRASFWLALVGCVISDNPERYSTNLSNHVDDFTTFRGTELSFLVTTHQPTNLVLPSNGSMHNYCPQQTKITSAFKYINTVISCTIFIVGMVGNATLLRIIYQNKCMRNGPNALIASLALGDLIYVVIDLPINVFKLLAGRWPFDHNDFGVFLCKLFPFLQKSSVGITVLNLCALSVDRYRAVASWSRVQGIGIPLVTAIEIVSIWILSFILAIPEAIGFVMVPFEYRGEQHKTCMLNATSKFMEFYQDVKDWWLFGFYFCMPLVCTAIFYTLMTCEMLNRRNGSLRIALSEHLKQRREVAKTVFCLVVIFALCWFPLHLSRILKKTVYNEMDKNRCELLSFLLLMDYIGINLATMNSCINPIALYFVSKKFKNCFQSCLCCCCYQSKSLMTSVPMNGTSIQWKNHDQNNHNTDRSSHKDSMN
Put plainly: Affinity against ET A receptor.

The target in assay [2] is T2, Endothelin receptor type B (Rattus norvegicus, UniProt P21451).
T2 sequence (P21451 whole entry): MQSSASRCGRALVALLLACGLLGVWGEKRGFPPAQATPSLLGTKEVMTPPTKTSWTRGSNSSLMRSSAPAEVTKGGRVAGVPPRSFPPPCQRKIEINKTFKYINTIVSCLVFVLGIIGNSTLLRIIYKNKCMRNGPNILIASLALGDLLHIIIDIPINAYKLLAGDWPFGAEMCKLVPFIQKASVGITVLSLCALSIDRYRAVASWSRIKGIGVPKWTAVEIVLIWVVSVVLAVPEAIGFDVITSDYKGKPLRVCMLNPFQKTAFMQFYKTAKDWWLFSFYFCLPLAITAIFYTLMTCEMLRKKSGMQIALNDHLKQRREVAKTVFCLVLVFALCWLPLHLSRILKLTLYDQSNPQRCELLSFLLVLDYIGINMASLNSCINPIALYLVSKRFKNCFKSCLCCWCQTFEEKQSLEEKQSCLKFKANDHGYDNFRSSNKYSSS
The assay is described as follows: Affinity against ET B receptor.

Where a SMILES comes first, the peptide text is derived from it. [ ]: non-standard residue; d: D form.

A word on the Ki: it is a measure of affinity in units of concentration, obtained from inhibition or displacement.

In assay [1], `CCCN1c2ccccc2C(=O)N(CC(=O)O)c2cc(NC(=O)c3cccc4ccccc34)ccc21` registered a Ki of 83 µM.
Turning to `O=C(O)CN1C(=O)c2ccccc2Nc2ccc(OCc3cccc4ccccc34)cc21`, the figures for the Ki in assay [1] and in assay [2] were 28 µM and 8 µM, respectively.
As for `CCCN1c2ccccc2C(=O)N(CC(=O)O)c2cc(NC(=O)c3c[nH]c4ccccc34)ccc21`, the results for the Ki in assay [1] and in assay [2] were 80 µM and 11 µM, respectively.
In the case of `CCCN1c2ccccc2C(=O)N(CC(=O)O)c2cc(OCc3cccc4ccccc34)ccc21`, the figures for the Ki in assay [1] and in assay [2] were 7 µM and 60 µM, respectively.
The corresponding values for `O=C(O)CN1C(=O)c2ccccc2Nc2ccc(OCc3ccccc3)cc21` are 109 µM and above 100 µM.
The corresponding values for `CCCN1c2ccccc2C(=O)N(CC(=O)O)c2cc(NC(=O)c3cc4ccccc4[nH]3)ccc21` are 33 µM and 6 µM.
`CCCN1c2ccccc2C(=O)N(CC(=O)O)c2cc(NCc3cccc4ccccc34)ccc21`: the Ki in assay [1] was found to be 17 µM; in assay [2], 9 µM.
The corresponding values for `CCCN1c2ccccc2C(=O)N(CC(=O)O)c2cc(Cc3c[nH]c4ccccc34)ccc21` are 41 µM and 12 µM.
`CC(C)C[C@@H]1NC(=O)[C@@H](C(C)C)NC(=O)[C@@H]2CCCN2C(=O)[C@@H](CC(=O)O)NC(=O)[C@@H](Cc2c[nH]c3ccccc23)NC1=O` [BQ-123] (cyclo(L[dW][dD]P[dV])): in assay [1], the Ki was found to be 0.018 µM.
Still for that read-out and setting: the value for `CC(C)C[C@@H]1NC(=O)[C@@H](C(C)C)NC(=O)[C@@H]2CCCN2C(=O)[C@@H](CC(=O)O)NC(=O)[C@@H](Cc2ccccc2)NC1=O` was 2.4 µM.
Regarding `CCCN1c2ccccc2C(=O)N(CC(=O)O)c2cc(NC(=O)Cc3c[nH]c4ccccc34)ccc21`, the Ki turned out to be 14 µM in assay [1] and 7 µM in assay [2].
For the molecule `CC(C)C[C@@H]1NC(=O)[C@@H](C(C)C)NC(=O)[C@@H]2CCCN2C(=O)[C@@H](CC(=O)O)NC(=O)[C@@H](Cc2cccc3ccccc23)NC1=O`, the inhibition constant Ki in assay [1] was found to be 0.224 µM.
